Series [1] is described as follows: Foam height, Ross-Miles method. The format is physicochemical. The conditions noted are these: 45°C, water with 120 ppm hardness; for Initial Height: foam production, measured initially; for After 10 Minutes: foam stability, height after 10 minutes. Here is the method:
Since most of the foaming data on surfactants is typically obtained by the Ross-Miles method (Ross, J. and Miles, G.D., am. Soc. for Testing Material Method D1173-53 Philadelphia, PA. (1953); Oil & Soap (1958) 62:1260) the foaming ability of these surfactants was also acquired using this method.
In the Ross-Miles method, 200 mL of a solution of surfactant contained in a pipette of specified dimensions with a 2.9-mm-i.d. orifice is allowed to fall 90 cm onto 50 mL of the same solution contained in a cylindrical vessel maintained at a given temperature (often 60°C) by means of a water jacket. The height of the foam produced in the cylindrical vessel is read immediately after all the solution has run out of the pipette (initial foam height) and then again after a given amount of time (generally, 5 min).
Using this method, the foam production (measured initially) and foam stability (the height after 10 minutes) are reported. […] The foam height is represented in millimeters (mm).

In another series the test system is Streptococcus sanguis. Nature of the series: Antimicrobial activity determination (MIC). The format is cell-based. The note with it: Streptococcus, Streptococcus sanguis; BHI broth, aerobic, 37 degrees C; read-out: Minimimum Inhibitory Concentrations. As for the experimental part:
(§1) The antimicrobial activity of the targeted agents was assessed by determining the minimum inhibitory concentration (MIC). Pure cultures of various strains of oral bacterial species as indicated in Table 3 were combined with serial dilutions of the targeted agents in beef heart infusion broth (BHI); starting bacterial concentrations were approximately 1.0 x 10E6 colony forming units (CFU) per ml. The mixtures were incubated aerobically at 37 degrees C and the optical density (540 nm, path length 1cm) of the cultures was measured at 0.0, 24.0 and 48.0 hr using Bausch and Lomb Spec 20 variable wavelength spectrophotometer.

A further series relates to Veillonella dispar. Put plainly: Antimicrobial activity determination (MIC). Format: cell-based. The conditions noted are these: BHI broth, aerobic, 37 degrees C, read-out: Minimimum Inhibitory Concentrations. As for the experimental part: as §1
A further series deals with Neisseria subflava. Put plainly: Antimicrobial activity determination (MIC). Format: cell-based. The conditions noted are these: BHI broth, aerobic, 37 degrees C, read-out: Minimimum Inhibitory Concentrations. Here is the method: as §1
The test system of another series is Streptococcus sobrinus. Put plainly: Antimicrobial activity determination (MIC). Format: cell-based. The note with it: BHI broth, aerobic, 37 degrees C, read-out: Minimimum Inhibitory Concentrations. Here is the method:
as §1

A further series deals with Prevotella intermedius. Put plainly: Antimicrobial activity determination (MIC). Format: cell-based. The conditions noted are these: Prevotella intermedius; BHI broth, aerobic, 37 degrees C; read-out: Minimimum Inhibitory Concentrations. Here is the method: as §1
A further series deals with Actinomyces naeslundii. Nature of the series: Antimicrobial activity determination (MIC). The note with it: BHI broth, aerobic, 37 degrees C, read-out: Minimimum Inhibitory Concentrations. Format: cell-based. Here is the method:
as §1

The next series relates to Candida albicans. Put plainly: Antimicrobial activity determination (MIC). The format is cell-based. The note with it: BHI broth, aerobic, 37 degrees C, read-out: Minimimum Inhibitory Concentrations. As for the experimental part:
as §1

A further series concerns Porphyromonas gingivalis. Put plainly: Antimicrobial activity determination (MIC). Format: cell-based. The note with it: BHI broth, aerobic, 37 degrees C, read-out: Minimimum Inhibitory Concentrations. Here is the method: as §1
A short description of series [2]: Krafft point of a 1% dispersion in water. The format is physicochemical. The conditions noted are these: 1% dispersion of the surfactant in water. Here is the method: The temperature at and above which surfactants begin to form micelles instead of precipitates is referred to as Krafft point (Tk) and at this temperature the solubility of a surfactant becomes equal to its CMC.
Krafft point was measured by preparing a 1% dispersion of the surfactant in water. If the surfactant was soluble at room temperature, the solution was cooled to 0°C. […] If it precipitated out, the solution was slowly warmed with stirring in a water bath. The temperature at which the precipitate dissolved was determined to be the Krafft point.
If the Krafft point was above room temperature, the solution was first heated rapidly to dissolve all the surfactant. It was then cooled until precipitation occurred, and was then slowly warmed to determine the Krafft point described above.

In brackets after ≈: the same amount, converted by molar mass.

With `CCCCCCCCCCCCNC(=O)[C@H](O)[C@@H](O)[C@H](O[C@@H]1O[C@H](CO)[C@H](O)[C@H](O)[C@H]1O)[C@H](O)CO` [Dodecyl lactobionamide, N-dodecyl lactobionamide], the “Initial Height” value in series [1] stood at 160 mm. The “After 10 Minutes” value in series [1] was 6 mm. The MIC with Streptococcus sanguis came to 125 µg/mL (≈ 238 µM); in the series on Veillonella dispar, 60 µg/mL (≈ 114 µM); in the series with Neisseria subflava it was 250 µg/mL (≈ 476 µM); in the series on Streptococcus sobrinus, 125 µg/mL (≈ 238 µM); with Prevotella intermedius, 250 µg/mL (≈ 476 µM); in the series on Actinomyces naeslundii it was 60 µg/mL (≈ 114 µM). The MIC in the series with Candida albicans was determined as 125 µg/mL (≈ 238 µM); in the series on Porphyromonas gingivalis, 30 µg/mL (≈ 57.1 µM). Besides, in series [2], the “Krafft Point” value is 38 °C.

Consider `CCCCCCCCCCNC(=O)[C@H](O)[C@@H](O)[C@H](O[C@@H]1O[C@H](CO)[C@H](O)[C@H](O)[C@H]1O)[C@H](O)CO` [Decyl lactobionamide, N-decyl lactobionamide], for which the “Initial Height” value in series [1] was determined as 150 mm. In addition, the “After 10 Minutes” value in [1] is listed as 5 mm. Moreover, the MIC is more than 500 µg/mL in the series on Streptococcus sanguis; 500 µg/mL (≈ 1000 µM) in the series with Veillonella dispar; 500 µg/mL (≈ 1000 µM) in the series with Neisseria subflava; more than 500 µg/mL in the series with Streptococcus sobrinus; more than 500 µg/mL in the series on Prevotella intermedius; more than 500 µg/mL with Actinomyces naeslundii. Besides, the MIC in the series with Candida albicans worked out at 500 µg/mL (≈ 1000 µM). Moreover, the “Krafft Point” value in series [2] was 0 °C.

Values taken from patent publication EP0551675A1, “Oral hygiene compositions containing antiplaque agents” (UNILEVER N.V., priority 1991, dated 1993).
